Structures can show the parent of a compound that is named as a salt.
Experiments:
[1] = test system: patients with light and moderate diastolic hypertension; experiment: Clinical trial study of Example 5 (compound preparation 5 mg lercanidipine + 20 mg losartan vs single drugs and amlodipine); type: in vivo, human; settings: for Diastolic blood pressure Value changed / Systolic blood pressure Value changed: before treatment vs end of week 12; for Diastolic blood pressure Before dosing / Systolic blood pressure Before dosing: before treatment, mean ± SD; for Diastolic blood pressure After dosing / Systolic blood pressure After dosing: once daily
Procedure: After 14-20 days of washing stage, entering 14-30 days of introduction stage, during which single blinded placebos were taken. Blood pressures were measured in a return visit in every 7-10 days. Suitable patients were divided into treatment groups according to random principle.
(§1) 1.3 Observation indicators and method: blood, pressures were measured as per the requirements of international standard. A settled physician would follow up once a week and visited from 9:00 to 11:00. Every time heart rate and sitting blood pressure were measured 3 times and the 2 greater values were taken to calculate the mean value.
(§2) 1.4 Laboratory examinations: electrocardiogram, blood and urine routine, liver and kidney function, blood sugar, blood lipid and blood electrolyte examinations were performed before and after overall patient trial.
(§3) 1.6 Data processing and statistical method: the measurement data were calculated as mean±standard variation. Paired t-test was used to compare the quantitative indicators before and after the 4 treatment patterns. Chi-square test was used to compare the difference before and after administration.

[2] = test system: patients with light and moderate diastolic hypertension; experiment: Clinical trial study of Example 6 (compound preparation 7.5 mg lercanidipine + 20 mg losartan vs single drugs); type: in vivo, human; settings: for Diastolic blood pressure Value changed / Systolic blood pressure Value changed: before treatment vs end of week 12; for Diastolic blood pressure Before dosing / Systolic blood pressure Before dosing: before treatment, mean ± SD
Description: 1.1 Selection of cases: patients aged from 18-75 years old with light and moderate diastolic hypertension (supine diastolic blood pressure 95-115 mmHg), excluding severe hypertension (diastolic blood pressure >115 mmHg), secondary hypertension, heart disease, myocardial infarction, shock, transient ischemic stroke within the past 3 months, sinus bradycardia or sinus tachycardia, hypovolemia, liver and kidney dysfunction and diabetes. After 14-20 days of washing stage, entering 14-30 days of introduction stage, during which single blinded placebos were taken. Blood pressures were measured in a return visit in every 7-10 days. Suitable patients were divided into treatment groups according to random principle.
1.2 Trial method: there were totally 359 patients enrolled, and 305 patients entered the introduction stage and 266 entered the assessment stage.
as §1, with “blood” for “blood,”
as §2
1.5 Curative effect assessment: according to the regulations of The National Cardiovascular Epidemiology and Population Prevention report meeting summary in 1979: (1) markedly effective: diastolic blood pressure was decreased by ≧10 mmHg, and was decreased to normal (<90 mmHg) or decreased by more than 20 mmHg; (2) effective: diastolic blood pressure was decreased by 10-19 mmHg or was decreased by <10 mmHg, but reached normal; (3) failure: not reached above criteria.
as §3

| Compound | cases occurring gastrointestinal tract symptoms ([1]; 12 weeks of treatment) | Diastolic blood pressure Value changed [1] [mmHg] | Systolic blood pressure Value changed [1] [mmHg] | Diastolic blood pressure Before dosing [1] [mmHg] | Systolic blood pressure Before dosing [1] [mmHg] | Diastolic blood pressure After dosing ([1]; end of week 12 of treatment) [mmHg] | Systolic blood pressure After dosing ([1]; end of week 12 of treatment) [mmHg] | cases occurring gastrointestinal tract symptoms ([2]; 12 weeks of treatment) | Diastolic blood pressure Value changed [2] [mmHg] | Systolic blood pressure Value changed [2] [mmHg] | Diastolic blood pressure Before dosing [2] [mmHg] | Systolic blood pressure Before dosing [2] [mmHg] | Diastolic blood pressure After dosing ([2]; end of week 12 of treatment) [mmHg] | Systolic blood pressure After dosing ([2]; end of week 12 of treatment) [mmHg] | further results |
| --- | --- | --- | --- | --- | --- | --- | --- | --- | --- | --- | --- | --- | --- | --- | --- |
| CCCCc1nc(Cl)c(CO)n1Cc1ccc(-c2ccccc2-c2nn[nH]n2)cc1 [losartan] | four | 11 ± 5 | 15 ± 9 | 100 ± 5 | 152 ± 9 | 81 ± 9 | 138 ± 6 | two | 14 ± 5 | 17 ± 5 | 102 ± 6 | 152 ± 7 | 83 ± 8 | 139 ± 5 | cases of dry mouth ([1]; 12 weeks of treatment): one; Effective rate (total effective rate for decreasing blood pressure) ([1]; end of week 12 of treatment; criteria of b72; listed as 3)): 75.1%; Effective rate (total effective rate for decreasing blood pressure) ([1]; end of week 12 of treatment, criteria of b72, listed as lorsartan): 75.1%; cases of dry mouth ([2]; 12 weeks of treatment): one; Effective rate (total effective rate for decreasing blood pressure) ([2]; end of week 12 of treatment; criteria of b91; listed as 3)): 77.3%; Effective rate (total effective rate for decreasing blood pressure) ([2]; end of week 12 of treatment, criteria of b91, listed as lorsartan): 77.3% |
| COC(=O)C1=C(C)NC(C)=C(C(=O)OC(C)(C)CN(C)CCC(c2ccccc2)c2ccccc2)C1c1cccc([N+](=O)[O-])c1 (stereo not shown) [lercanidipine hydrochloride] | two | 13 ± 8 | 19 ± 3 | 104 ± 9 | 152 ± 9 | 88 ± 7 | 139 ± 8 | one | 16 ± 6 | 19 ± 7 | 106 ± 8 | 156 ± 8 | 89 ± 7 | 136 ± 7 | cases of dizziness ([1]; 12 weeks of treatment): one; Effective rate (total effective rate for decreasing blood pressure) ([1]; end of week 12 of treatment, criteria of b72, hydrochloride): 70.8%; Effective rate (total effective rate for decreasing blood pressure) ([1]; end of week 12 of treatment; criteria of b72; listed as 2), hydrochloride): 70.8%; cases of dizziness ([2]; 12 weeks of treatment): one; Effective rate (total effective rate for decreasing blood pressure) ([2]; end of week 12 of treatment, criteria of b91, hydrochloride): 71.6%; Effective rate (total effective rate for decreasing blood pressure) ([2]; end of week 12 of treatment; criteria of b91; listed as 2), hydrochloride): 71.6% |
